According to patent US20250195521A1 (Revolution Medicines, Inc., priority 2020, published 2025):
Read-outs that look alike come from different tables or passages of the source.

Columns and labels:
[1] = tested on: NCI-H358 cells (K-Ras G12C); test: CellTiter-Glo cell viability, NCI-H358; assay type: cell-based, human; conditions: K-Ras G12C, 5-day treatment, read-out: H358 Cell Viability IC50
Method: Note—The following protocol describes a procedure for monitoring cell viability of K-Ras mutant cancer cell lines in response to a compound of the invention. Other RAS isoforms may be employed, though the number of cells to be seeded will vary based on cell line used.
Test compounds (132.5 nl) were directly dispensed into the assay plates containing cells. […] On day 5, assay plates and their contents were equilibrated to room temperature for approximately 30 minutes. […] Luminescence was measured using the PerkinElmer Enspire. Data were normalized by the following: (Sample signal/Avg. DMSO)*100. The data were fit using a four-parameter logistic fit.

KRAS G12C = KRAS G12C (Homo sapiens (Human), UniProt P01116+P62937, G12C); test: Ras-Raf disruption/FRET/MOA assay (BRAF RBD, Cyclophilin A); assay type: biochemical; conditions: read-out: KRAS G12C FRET IC50
Method in brief: (§1)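 TR-FRET read after 1.5 h with 10 nM anti-His Eu-W1024 and 50 nM anti-GST APC, following 3 h at 25 °C of GMPPNP-loaded His6-Ras (12.5 nM), GST-BRAF RBD (50 nM) and Cyclophilin A (25 μM) with compound from 30 μM final, 10 points, 3-fold. IC50 reported; pH 7.3 HEPES, 100 mM NaCl.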

KRAS G12D = KRAS G12D (Homo sapiens (Human), UniProt P01116+P62937, G12D); test: as above; assay type: biochemical; conditions: read-out: KRAS G12D FRET IC50
Method in brief: as §1

KRAS G12S = KRAS G12S (Homo sapiens (Human), UniProt P01116+P62937, G12S); test: as above; assay type: biochemical; conditions: read-out: KRAS G12S FRET IC50
Method in brief: as §1

KRAS G12V = KRAS G12V (Homo sapiens (Human), UniProt P01116+P62937, G12V); test: as above; assay type: biochemical; conditions: read-out: KRAS G12V FRET IC50
Method in brief: as §1

KRAS G13C = KRAS G13C (Homo sapiens (Human), UniProt P01116+P62937, G13C); test: as above; assay type: biochemical; conditions: read-out: KRAS G13C FRET IC50
Method in brief: as §1

KRAS G13D = KRAS G13D (Homo sapiens (Human), UniProt P01116+P62937, G13D); test: as above; assay type: biochemical; conditions: read-out: KRAS G13D FRET data IC50
Method in brief: as §1

KRAS WT = KRAS WT (Homo sapiens (Human), UniProt P01116+P62937); test: as above; assay type: biochemical; conditions: read-out: KRAS WT FRET data IC50
Method in brief: as §1

NRAS G12C = NRAS G12C (Homo sapiens (Human), UniProt P01111+P62937, G12C); test: as above; assay type: biochemical; conditions: read-out: NRAS G12C FRET data IC50
Chain of NRAS G12C (P01111 whole entry G12C): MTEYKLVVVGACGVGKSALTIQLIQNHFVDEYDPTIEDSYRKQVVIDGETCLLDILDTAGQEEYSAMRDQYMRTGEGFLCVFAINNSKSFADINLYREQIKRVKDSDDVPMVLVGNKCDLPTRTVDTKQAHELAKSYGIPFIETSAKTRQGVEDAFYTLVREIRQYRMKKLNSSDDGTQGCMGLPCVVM
Chain of NRAS G12C (P62937 whole entry): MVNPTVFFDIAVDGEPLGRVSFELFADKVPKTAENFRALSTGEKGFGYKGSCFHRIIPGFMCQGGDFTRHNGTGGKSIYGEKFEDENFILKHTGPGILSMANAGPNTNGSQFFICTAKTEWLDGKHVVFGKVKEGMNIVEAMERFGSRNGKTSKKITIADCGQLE
Method in brief: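 TR-FRET readout: anti-His Eu-W1024 (10 nM) and anti-GST allophycocyanin (50 nM) added after 3 h, 25° C compound incubation, then 1.5 h more. Decrease in FRET ratio versus DMSO wells marks Ras:RAF disruption; IC50 reported.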

[2] = tested on: K-Ras G12C (NCI-H358 cells); test: Potency assay: pERK in NCI-H358 cells; assay type: cell-based, human; conditions: NCI-H358 cells, 4 hours, read-out: pERK EC50 (H358 KRAS G12C)
Method in brief: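 Cells plated the day before were exposed for 4 h at 37° C, 5% CO2 to a 10-point, 3-fold DMSO dilution series (10 mM top stock), in duplicate. Phospho-ERK was read by AlphaLISA SureFire Ultra or by In-Cell Western with DRAQ5 DNA stain, and IC50 came from a 4-parameter sigmoidal fit.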

NCI-H358 (K-Ras G12C) = test: CellTiter-Glo cell viability assay, NCI-H358; assay type: cell-based, human; conditions: 5-day treatment, read-out: H358 Cell Viability assay data (K-Ras G12C, IC50)
Method in brief: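 Five-day compound treatment of NCI-H358 cells, then CellTiter-Glo luminescence, percent of DMSO, four-parameter logistic fit.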

[3] = tested on: Capan-1 cells (K-Ras G12V); test: CellTiter-Glo cell viability, Capan-1; assay type: cell-based, human; conditions: Homo sapiens, CAPAN-1, 120 h, K-Ras G12V, 5-day treatment; read-out: Capan-1 Cell Viability IC50
Method in brief: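 Five-day treatment of K-Ras mutant cells with directly dispensed compound; ATP-based luminescence endpoint. Percent of DMSO signal fit to four-parameter logistic curve.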

Row | Compound | IC50 ([1]; Homo sapiens, NCI-H358, 120 h) [nM] | IC50 (KRAS G12C) [nM] | IC50 (KRAS G12D) [nM] | IC50 (KRAS G12S) [nM] | IC50 (KRAS G12V) [nM] | IC50 (KRAS G13C) [nM] | IC50 (KRAS G13D) [nM] | IC50 (KRAS WT) [nM] | IC50 (NRAS G12C) [nM] | EC50 ([2]; Homo sapiens) [nM] | IC50 [1] [nM] | EC50 [2] [nM] | IC50 (NCI-H358 (K-Ras G12C)) [nM] | IC50 (NCI-H358 (K-Ras G12C); Homo sapiens, NCI-H358, 120 h) [nM] | IC50 [3] [nM]
1 | CCn1c(-c2cnccc2COC)c2c3cc(ccc31)-c1cc(O)cc(c1)C[C@H](NC(=O)[C@H](C(C)C)N(C)C(=O)[C@H]1CCN(C(=O)C(C)(C)N)C1)C(=O)N1CCC[C@H](N1)C(=O)OCC(C)(C)C2 [Compound A15] | 1000 to 10000 | 10 to 100 | 100 to 1000 | 100 to 1000 | 100 to 1000 | 100 to 1000 | 100 to 1000 | 100 to 1000 | 100 to 1000 |  |  |  |  |  | 
2 | CCn1c(-c2cnccc2COC)c2c3cc(ccc31)-c1cc(O)cc(c1)C[C@H](NC(=O)[C@H](C(C)C)N(C)C(=O)N1CCN(C)CC1)C(=O)N1CCC[C@H](N1)C(=O)OCC(C)(C)C2 [Compound A46] | 1000 to 10000 | 100 to 1000 | 1000 to 10000 | 100 to 1000 | 1000 to 10000 | 100 to 1000 | 100 to 1000 | 100 to 1000 | 100 to 1000 |  |  |  |  |  | 
3 | CCn1c(-c2cnccc2COC)c2c3cc(ccc31)-c1cc(O)cc(c1)C[C@H](NC(=O)[C@H](C(C)C)N(C)c1ncco1)C(=O)N1CCC[C@H](N1)C(=O)OCC(C)(C)C2 [Compound A52] | 1000 to 10000 | 100 to 1000 | > 10000 | 1000 to 10000 | 1000 to 10000 | 1000 to 10000 | 1000 to 10000 | 1000 to 10000 | 1000 to 10000 |  |  |  |  |  | 
4 | CCn1c(-c2cccnc2COC)c2c3cc(ccc31)-c1cc(O)cc(c1)C[C@H](NC(=O)[C@H](C(C)C)N(C)C(C)=O)C(=O)N1CCC[C@H](N1)C(=O)OCC(C)(C)C2 [Compound A55] | 1000 to 10000 | 1000 to 10000 | > 10000 | 1000 to 10000 | 1000 to 10000 | 100 to 1000 |  | 1000 to 10000 |  | < 5000 |  |  |  |  | 
5 | CCn1c(-c2cnccc2COC)c2c3cc(ccc31)-c1cc(O)cc(c1)C[C@H](NC(=O)[C@@H](OC(=O)N1CCCC1)C(C)C)C(=O)N1CCC[C@H](N1)C(=O)OCC(C)(C)C2 [Compound A59] | 1000 to 10000 | 1000 to 10000 | > 10000 | 1000 to 10000 | 1000 to 10000 | > 10000 | 1000 to 10000 | 1000 to 10000 | 1000 to 10000 |  |  |  |  |  | 
6 | CCn1c(-c2cnccc2COC)c2c3cc(ccc31)-c1cc(O)cc(c1)C[C@H](NC(=O)[C@H](C(C)C)N(C)C(=O)CN/C(N)=N/C#N)C(=O)N1CCC[C@H](N1)C(=O)OCC(C)(C)C2 [Compound A62] | > 10000 | 10 to 100 | 100 to 1000 | 100 to 1000 | 100 to 1000 | 100 to 1000 | 100 to 1000 | 100 to 1000 | 100 to 1000 |  |  |  |  |  | 
7 | CCn1c(-c2cnccc2COC)c2c3cc(ccc31)-c1cc(O)cc(c1)C[C@H](NC(=O)[C@H](C(C)C)N(C)c1cnc(N)[nH]c1=O)C(=O)N1CCC[C@H](N1)C(=O)OCC(C)(C)C2 [Compound A63] | > 10000 | 1000 to 10000 | > 10000 | 1000 to 10000 | 1000 to 10000 | 1000 to 10000 | 1000 to 10000 | 1000 to 10000 | 1000 to 10000 |  |  |  |  |  | 
8 | CCn1c(-c2cnccc2COC)c2c3cc(ccc31)-c1cc(O)cc(c1)C[C@H](NC(=O)[C@H](C(C)C)N(C)C(=O)CCCCN)C(=O)N1CCC[C@H](N1)C(=O)OCC(C)(C)C2 [Compound A66] | 1000 to 10000 | 100 to 1000 | 100 to 1000 | 100 to 1000 | 1000 to 10000 | 100 to 1000 | 100 to 1000 | 100 to 1000 | 100 to 1000 |  |  |  |  |  | 
9 | CCn1c(-c2cccnc2COC)c2c3cc(ccc31)-c1cc(O)cc(c1)C[C@H](NC(=O)[C@H](C(C)C)N(C)C(=O)c1ccc(NC(=O)/C=C/CN(C)C)cn1)C(=O)N1CCC[C@H](N1)C(=O)OCC(C)(C)C2 [Compound A67, (2E)-4-(dimethylamino)-N-(6-{[(1S)-1-{[(8S,14S)-22-ethyl-4-hydroxy-21-[2-(methoxymethyl)pyridin-3-yl]-18,18-dimethyl-9,15-dioxo-16-oxa-10,22,28-triazapentacyclo [18.5.2.1^2,6.1^10,14.0^23,27]nonacosa-1 (26),2,4,6 (29),20,23 (27),24-heptaen-8-yl]carbamoyl}-2-methylpropyl](methyl)carbamoyl}pyridin-3-yl) but-2-enamide] |  | 10 to 100 | 100 to 1000 | 100 to 1000 | 100 to 1000 | 10 to 100 |  |  |  |  | 1000 to 10000 | < 5000 | 100 to 1000 |  | 
10 | CCn1c(-c2ccccc2CCOC)c2c3cc(ccc31)-c1cc(O)cc(c1)C[C@H](NC(=O)[C@H](C(C)C)N(C)C(=O)CNC(=N)N)C(=O)N1CCC[C@H](N1)C(=O)OCC(C)(C)C2 [Compound A69] | > 10000 | 100 to 1000 | 1000 to 10000 | 100 to 1000 | 1000 to 10000 | 100 to 1000 | 1000 to 10000 | 1000 to 10000 |  | < 5000 |  |  |  | 10 to 100 | 
11 | CCn1c(-c2cccnc2[C@H](C)OC)c2c3cc(ccc31)-c1cc(O)cc(c1)C[C@H](NC(=O)[C@H](C(C)C)N(C)C(=O)C1(F)CC1)C(=O)N1CCC[C@H](N1)C(=O)OCC(C)(C)C2 [Compound A165] | 10 to 100 | 10 to 100 | 100 to 1000 | 10 to 100 |  | 10 to 100 | 10 to 100 | 10 to 100 | 10 to 100 |  |  |  |  |  | 
12 | CCn1c(-c2cccnc2[C@H](C)OC)c2c3cc(ccc31)-c1cc(O)cc(c1)C[C@H](NC(=O)[C@H](C(C)C)N(C)C(=O)[C@H]1C[C@@H]1O)C(=O)N1CCC[C@H](N1)C(=O)OCC(C)(C)C2 [Compound A323] | 100 to 1000 | < 10 |  | 10 to 100 | 10 to 100 |  | 10 to 100 |  | < 10 |  |  |  |  |  | 100 to 1000
13 | CCn1c(-c2cccnc2[C@H](C)OC)c2c3cc(ccc31)-c1csc(n1)C[C@H](NC(=O)[C@H](C(C)C)N(C)C(=O)N1CCN(C(=O)[C@H]3CCCN3C)CC1)C(=O)N1CCC[C@H](N1)C(=O)OCC(C)(C)C2 [Compound A595] | 10 to 100 |  |  |  |  |  |  |  |  | < 5000 |  |  |  |  | 100 to 1000
14 | (2S)—N-[(8S,14S)-22-ethyl-4-hydroxy-21-[4-(methoxymethyl)pyridin-3-yl]-18,18-dimethyl-9,15-dioxo-16-oxa-10,22,28-triazapentacyclo [18.5.2.1^2,6.1^10,14.0^23,27]nonacosa-1 (26),2,4,6 (29),20,23 (27),24-heptaen-8-yl]-2-{1-[(3S)-1-{2-[(3R)-3-hydroxypyrrolidin-1-yl]acetyl}pyrrolidin-3-yl]-N-methylformamido}-3-methylbutanamide [Compound A6] |  | 10 to 100 | 100 to 1000 | 10 to 100 | 100 to 1000 | 100 to 1000 |  |  |  |  | 1000 to 10000 | < 5000 | 100 to 1000 |  | 
